PubChem BioAssay (NCI)
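GI50 = concentration required for 50% inhibition of growth. TGI: total growth inhibition.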

Experiments:
Assay in all cases: NCI tumour cell line growth inhibition, 384-well format
HCT-15 colon = test system: HCT-15 colon
HS 578T breast = test system: HS 578T breast
ACHN renal = test system: ACHN renal
NCI-H522 lung = test system: NCI-H522 lung
SR leukemia = test system: SR leukemia
SNB-75 CNS = test system: SNB-75 CNS
NCI-H23 lung = test system: NCI-H23 lung
A549 NSCLC = test system: A549 NSCLC
TK-10 renal = test system: TK-10 renal
MDA-MB-468 breast = test system: MDA-MB-468 breast
PC-3 prostate = test system: PC-3 prostate
SF-539 CNS = test system: SF-539 CNS
SNB-19 CNS = test system: SNB-19 CNS
CCRF-CEM leukemia = test system: CCRF-CEM leukemia
DU-145 prostate = test system: DU-145 prostate
A498 renal = test system: A498 renal
NCI-H322M lung = test system: NCI-H322M lung
SK-MEL-2 melanoma = test system: SK-MEL-2 melanoma
IGROV1 ovarian = test system: IGROV1 ovarian
UACC-257 melanoma = test system: UACC-257 melanoma
HL-60(TB) leukemia = test system: HL-60(TB) leukemia
SK-MEL-5 melanoma = test system: SK-MEL-5 melanoma
OVCAR-3 ovarian = test system: OVCAR-3 ovarian
T-47D breast = test system: T-47D breast
M14 melanoma = test system: M14 melanoma
MOLT-4 leukemia = test system: MOLT-4 leukemia
NCI/ADR-RES ovarian = test system: NCI/ADR-RES ovarian
UO-31 renal = test system: UO-31 renal
U251 glioblastoma = test system: U251 glioblastoma
HCT-116 colon = test system: HCT-116 colon

Compound: O=C(Nc1ccc(OC(F)(F)Cl)cc1)c1cnc(N2CC[C@@H](O)C2)c(-c2ccn[nH]2)c1
- TGI (HCT-15 colon): 10.9 µM
- GI50 (HS 578T breast): 12.6 µM
- TGI (HS 578T breast): 25.3 µM
- GI50 (ACHN renal): 12.1 µM
- TGI (ACHN renal): 29.4 µM
- GI50 (NCI-H522 lung): 11.7 µM
- TGI (NCI-H522 lung): 24.3 µM
- GI50 (SR leukemia): 1.94 µM
- TGI (SR leukemia): 4.74 µM
- GI50 (SNB-75 CNS): 7.86 µM
- TGI (SNB-75 CNS): 20.9 µM
- GI50 (NCI-H23 lung): 12.3 µM
- TGI (NCI-H23 lung): 25.9 µM
- GI50 (A549 NSCLC): 13.3 µM
- TGI (A549 NSCLC): 29.7 µM
- GI50 (TK-10 renal): 10.8 µM
- TGI (TK-10 renal): 26.4 µM
- GI50 (MDA-MB-468 breast): 3.89 µM
- TGI (MDA-MB-468 breast): 15 µM
- GI50 (PC-3 prostate): 13.6 µM
- TGI (PC-3 prostate): 26.8 µM
- GI50 (SF-539 CNS): 10.1 µM
- TGI (SF-539 CNS): 22.5 µM
- GI50 (SNB-19 CNS): 14.5 µM
- TGI (SNB-19 CNS): 27.9 µM
- GI50 (CCRF-CEM leukemia): 3.01 µM
- TGI (CCRF-CEM leukemia): 10.6 µM
- GI50 (DU-145 prostate): 17.7 µM
- TGI (DU-145 prostate): 32.8 µM
- GI50 (A498 renal): 13.6 µM
- TGI (A498 renal): 26.8 µM
- GI50 (NCI-H322M lung): 12.3 µM
- TGI (NCI-H322M lung): 25.1 µM
- GI50 (SK-MEL-2 melanoma): 15.4 µM
- TGI (SK-MEL-2 melanoma): 28.8 µM
- GI50 (IGROV1 ovarian): 10.9 µM
- TGI (IGROV1 ovarian): 23.6 µM
- GI50 (UACC-257 melanoma): 9.12 µM
- TGI (UACC-257 melanoma): 22.5 µM
- GI50 (HL-60(TB) leukemia): 2.77 µM
- TGI (HL-60(TB) leukemia): 6.75 µM
- GI50 (SK-MEL-5 melanoma): 4.81 µM
- TGI (SK-MEL-5 melanoma): 17.2 µM
- GI50 (OVCAR-3 ovarian): 11.1 µM
- TGI (OVCAR-3 ovarian): 23.3 µM
- GI50 (T-47D breast): 2.97 µM
- TGI (T-47D breast): 10.7 µM
- GI50 (M14 melanoma): 10.5 µM
- TGI (M14 melanoma): 22.9 µM
- GI50 (MOLT-4 leukemia): 5.82 µM
- TGI (MOLT-4 leukemia): 18.3 µM
- GI50 (NCI/ADR-RES ovarian): 19.3 µM
- TGI (NCI/ADR-RES ovarian): 41.9 µM
- GI50 (UO-31 renal): 11.6 µM
- TGI (UO-31 renal): 24.2 µM
- GI50 (U251 glioblastoma): 7.26 µM
- TGI (U251 glioblastoma): 20 µM
- GI50 (HCT-116 colon): 10.9 µM
- TGI (HCT-116 colon): 23.7 µM
